In patent publication US11964953B2, “Substituted aminothiazoles as DGKzeta inhibitors for immune activation” (Bayer Aktiengesellschaft, priority 2020, dated 2024):

Molecular target: human DGKζ (Homo sapiens (Human), UniProt Q13574)
Assay: Human DGKζ kinase activity inhibition assay (ADP-Glo)
Format: biochemical
Conditions: in vitro human DGKζ kinase activity inhibition assay; read-out: IC50
Summary of the method: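 Enzyme was C-terminally FLAG-tagged full-length recombinant human DGKζ from baculovirus-infected insect cells. Substrate preparation used octyl-β-D-glucopyranoside in 50 mM MOPS pH 7.4 with sonication; ADP generated was quantified by ADP-Glo luminescence as activity measure.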

human DGKζ, sequence (Q13574 other isoform, or with tags, fused parts or gaps): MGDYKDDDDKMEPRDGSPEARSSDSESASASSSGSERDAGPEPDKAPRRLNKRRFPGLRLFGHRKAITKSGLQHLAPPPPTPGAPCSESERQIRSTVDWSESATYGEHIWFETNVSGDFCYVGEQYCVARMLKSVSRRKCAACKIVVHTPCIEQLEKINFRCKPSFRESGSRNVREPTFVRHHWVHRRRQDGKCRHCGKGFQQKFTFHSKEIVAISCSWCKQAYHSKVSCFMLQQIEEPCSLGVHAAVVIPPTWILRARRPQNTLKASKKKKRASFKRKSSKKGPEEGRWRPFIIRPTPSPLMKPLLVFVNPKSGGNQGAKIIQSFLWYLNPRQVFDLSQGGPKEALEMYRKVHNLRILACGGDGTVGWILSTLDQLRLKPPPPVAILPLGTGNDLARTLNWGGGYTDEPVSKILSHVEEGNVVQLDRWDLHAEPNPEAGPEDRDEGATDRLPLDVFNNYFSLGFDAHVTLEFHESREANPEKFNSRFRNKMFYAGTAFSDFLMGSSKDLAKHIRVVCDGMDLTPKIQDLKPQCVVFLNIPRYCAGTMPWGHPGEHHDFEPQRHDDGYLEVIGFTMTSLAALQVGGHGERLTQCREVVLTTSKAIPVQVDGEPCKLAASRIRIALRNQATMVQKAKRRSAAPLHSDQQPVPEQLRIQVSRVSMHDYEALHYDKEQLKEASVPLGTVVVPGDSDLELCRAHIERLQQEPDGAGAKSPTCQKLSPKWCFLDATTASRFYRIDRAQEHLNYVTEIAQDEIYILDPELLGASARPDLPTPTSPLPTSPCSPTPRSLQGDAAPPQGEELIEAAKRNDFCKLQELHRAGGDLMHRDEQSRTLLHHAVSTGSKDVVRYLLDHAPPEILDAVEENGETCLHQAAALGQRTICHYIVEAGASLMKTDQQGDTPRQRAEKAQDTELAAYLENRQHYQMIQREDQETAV

Structure (SMILES) | IC50 [nM]
CC(C(N)=O)N(c1ccc(F)cc1)c1nc(N)c(C(=O)c2ccc(Cl)c(Cl)c2)s1 (racemic) [Example 26, rac-2-(N-[4-amino-5-(3,4-dichlorobenzoyl)thiazol-2-yl]-4-fluoro-anilino)propanamide] | 74.8
CC(C(N)=O)N(c1ccc(F)cc1)c1nc(N)c(C(=O)c2ccc3c(c2)CCC3)s1 (racemic) [Example 31, rac-2-(N-[4-amino-5-(indane-5-carbonyl)thiazol-2-yl]-4-fluoro-anilino)propanamide] | 43.5
CONC(=O)COc1ccc(C(=O)c2sc(N(c3ccc(F)cc3)C(C)C(N)=O)nc2N)cc1 (racemic) [Example 102, rac-2-(N-[4-amino-5-[4-[2-(methoxyamino)-2-oxo-ethoxy]benzoyl]thiazol-2-yl]-4-fluoro-anilino)propanamide] | 506
CCOc1ccc(N(c2nc(N)c(C(=O)c3ccccc3)s2)C(C)C(N)=O)cc1 (racemic) [Example 195, rac-2-(N-(4-amino-5-benzoyl-thiazol-2-yl)-4-ethoxy-anilino)propanamide] | 1000
CC(C(N)=O)N(c1ccc(F)cc1)c1nc(N)c(C(=O)c2ccc(OC(F)(F)F)cc2)s1 (single isomer, unassigned) [Example 40.1, 2-(N-[4-amino-5-[4-(trifluoromethoxy)benzoyl]thiazol-2-yl]-4-fluoro-anilino)propanamide] | 792
CC(C(N)=O)N(c1ccc(F)cc1)c1nc(N)c(C(=O)c2ccc(OCC(=O)NCc3ccccc3Cl)cc2)s1 (racemic) [Example 120, rac-2-(N-[4-amino-5-[4-[2-[(2-chlorophenyl)methylamino]-2-oxo-ethoxy]benzoyl]thiazol-2-yl]-4-fluoro-anilino)propanamide] | 16.7
CC(C(N)=O)N(c1ccc(F)cc1)c1nc(N)c(C(=O)c2ccc(C(=O)NC3CC3)cc2)s1 (racemic) [Example 266, rac-4-[4-amino-2-(N-(2-amino-1-methyl-2-oxo-ethyl)-4-fluoro-anilino)thiazole-5-carbonyl]-N-cyclopropyl-benzamide] | 287
CC(C(N)=O)N(c1ccc(F)cc1)c1nc(N)c(C(=O)c2ccc(Cl)cc2)s1 (racemic) [Example 38, rac-2-(N-[4-amino-5-(4-chlorobenzoyl)thiazol-2-yl]-4-fluoro-anilino)propanamide] | 19.3
COCCNC(=O)c1ccc(C(=O)c2sc(N(c3ccc(Cl)c(F)c3)C(C)C(N)=O)nc2N)cc1 (racemic) [Example 272, rac-4-[4-amino-2-(N-(2-amino-1-methyl-2-oxo-ethyl)-4-chloro-3-fluoro-anilino)thiazole-5-carbonyl]-N-(2-methoxyethyl)benzamide] | 39
COc1ccc(N(c2nc(N)c(C(=O)c3ccccc3)s2)C(C)C(N)=O)cc1Cl (racemic) [Example 17, rac-2-(N-(4-amino-5-benzoyl-thiazol-2-yl)-3-chloro-4-methoxy-anilino)propanamide] | 261
CC(C(N)=O)N(c1nc(N)c(C(=O)c2ccc(OC(F)F)cc2)s1)c1ccc(Cl)cc1F (single isomer, unassigned) [Example 46.2, 2-(N-[4-amino-5-[4-(difluoromethoxy)benzoyl]thiazol-2-yl]-4-chloro-2-fluoro-anilino)propanamide] | 5.69
CC(C(N)=O)N(c1ccc(Cl)cc1)c1nc(N)c(C(=O)c2ccc(Cl)cc2)s1 (racemic) [Example 41, rac-2-(N-[4-amino-5-(4-chlorobenzoyl)thiazol-2-yl]-4-chloro-anilino)propanamide] | 13.5
COc1ccc(C(=O)c2sc(N(c3ccc(F)c(F)c3)C(C)C(N)=O)nc2N)cn1 (racemic) [Example 52, rac-2-(N-[4-amino-5-(6-methoxypyridine-3-carbonyl)thiazol-2-yl]-3,4-difluoro-anilino)propanamide] | 99.2
CC(C(N)=O)N(c1ccc(F)c(F)c1)c1nc(N)c(C(=O)c2ccc(O)cc2)s1 (single isomer, unassigned; enantiomer 2) [Example 288, 2-(N-[4-amino-5-(4-hydroxybenzoyl)thiazol-2-yl]-3,4-difluoro-anilino)propanamide (enantiomer 2)] | 3440
CC(C(N)=O)N(c1ccc(Cl)c(F)c1)c1nc(N)c(C(=O)c2ccc(C(=O)NCCOC(C)(C)C)cc2)s1 (racemic) [Example 271, rac-4-[4-amino-2-(N-(2-amino-1-methyl-2-oxo-ethyl)-4-chloro-3-fluoro-anilino)thiazole-5-carbonyl]-N-(2-tert-butoxyethyl)benzamide] | 18
CC(C(N)=O)N(c1ccc(F)cc1)c1nc(N)c(C(=O)c2ccc(Oc3ccccc3)cc2)s1 (racemic) [Example 173, rac-2-(N-[4-amino-5-(4-phenoxybenzoyl)thiazol-2-yl]-4-fluoro-anilino)propanamide] | 25
CC(C(N)=O)N(c1ccc(Cl)c(F)c1)c1nc(N)c(C(=O)c2ccc(O)cc2)s1 (single isomer, unassigned; enantiomer 1) [Example 289, 2-(N-[4-amino-5-(4-hydroxybenzoyl)thiazol-2-yl]-4-chloro-3-fluoro-anilino)propanamide (enantiomer 1)] | 10

Structure (SMILES) | IC50 [nM]
CC(C(N)=O)N(c1ccc(F)c(OC(F)F)c1)c1nc(N)c(C(=O)c2ccccc2)s1 (racemic) [Example 237, rac-2-[N-(4-amino-5-benzoyl-thiazol-2-yl)-3-(difluoromethoxy)-4-fluoro-anilino]propanamide] | 749
CC(C(N)=O)N(c1ccc(Cl)c(F)c1)c1nc(N)c(C(=O)c2ccc(OC(F)F)cc2)s1 (single isomer, unassigned) [Example 48.1, 2-(N-[4-amino-5-[4-(difluoromethoxy)benzoyl]thiazol-2-yl]-4-chloro-3-fluoro-anilino)propanamide] | 1.76
CC(C(N)=O)N(c1ccc(F)c(F)c1)c1nc(N)c(C(=O)c2ccncc2)s1 (single isomer, unassigned) [Example 50.2, 2-(N-[4-amino-5-(pyridine-4-carbonyl)thiazol-2-yl]-3,4-difluoro-anilino)propanamide] | 14300
CC(C(N)=O)N(c1ccc(O)cc1)c1nc(N)c(C(=O)c2ccc(OC(F)F)cc2)s1 (single isomer, unassigned) [Example 291, 2-(N-[4-amino-5-[4-(difluoromethoxy)benzoyl]thiazol-2-yl]-4-hydroxy-anilino)propanamide (single enantiomer)] | 178
CC(C(N)=O)N(c1ccc(F)c(F)c1)c1nc(N)c(C(=O)c2ccncc2)s1 (single isomer, unassigned) [Example 50.1, 2-(N-[4-amino-5-(pyridine-4-carbonyl)thiazol-2-yl]-3,4-difluoro-anilino)propanamide] | 127
COc1ccc(C(=O)c2sc(N(c3ccc(F)c(Cl)c3)C(C)C(N)=O)nc2N)cc1 (single isomer, unassigned) [Example 161.2, 2-(N-[4-amino-5-(4-methoxybenzoyl)thiazol-2-yl]-3-chloro-4-fluoro-anilino)propanamide] | 2570
CC(C(N)=O)N(c1ccc(F)cc1)c1nc(N)c(C(=O)c2ccc(C#N)cc2)s1 (racemic) [Example 33, rac-2-(N-[4-amino-5-(4-cyanobenzoyl)thiazol-2-yl]-4-fluoro-anilino)propanamide] | 42.8
Cc1ccc(C(=O)c2sc(N(c3ccc(F)cc3)C(C)C(N)=O)nc2N)cc1 (racemic) [Example 63, rac-2-(N-[4-amino-5-(4-methylbenzoyl)thiazol-2-yl]-4-fluoro-anilino)propanamide] | 33.9
CC(C(N)=O)N(c1ccc(F)cc1)c1nc(N)c(C(=O)c2ccc(OCc3ccccc3)cc2)s1 (racemic) [Example 170, rac-2-(N-[4-amino-5-(4-benzyloxybenzoyl)thiazol-2-yl]-4-fluoro-anilino)propanamide] | 7
CC(C(N)=O)N(c1ccc(Cl)c(F)c1)c1nc(N)c(C(=O)c2ccc(OCc3ccccc3)cc2)s1 (racemic) [Example 166, rac-2-(N-[4-amino-5-(4-benzyloxybenzoyl)thiazol-2-yl]-4-chloro-3-fluoro-anilino)propanamide] | 3
Cc1cccc(CNC(=O)COc2ccc(C(=O)c3sc(N(c4ccc(F)cc4)C(C)C(N)=O)nc3N)cc2)c1 (racemic) [Example 83, rac-2-(N-[4-amino-5-[4-[2-(m-tolylmethylamino)-2-oxo-ethoxy]benzoyl]thiazol-2-yl]-4-fluoro-anilino)propanamide] | 24.3
CC(C(N)=O)N(c1ccc(F)cc1)c1nc(N)c(C(=O)c2ccc(OCC(=O)N(C)CCCN(C)C)cc2)s1 (racemic) [Example 113, rac-2-(N-(4-amino-5-[4-[2-[3-(dimethylamino)propyl-methyl-amino]-2-oxo-ethoxy]benzoyl]thiazol-2-yl]-4-fluoro-anilino)propanamide] | 703
Cc1nc(N(c2ccc(F)c(F)c2)C(C)C(N)=O)sc1C(=O)c1ccc(OC(F)F)cc1 (single isomer, unassigned) [Example 55.1, 2-(N-[5-[4-(difluoromethoxy)benzoyl]-4-methyl-thiazol-2-yl]-3,4-difluoro-anilino)propanamide] | 6
CC(C(N)=O)N(c1ccc(F)cc1)c1nc(N)c(C(=O)c2ccc(F)cc2)s1 (racemic) [Example 64, rac-2-(N-[4-amino-5-(4-fluorobenzoyl)thiazol-2-yl]-4-fluoro-anilino)propanamide] | 55.8
COc1ccc(C(=O)c2sc(N(c3ccc(Cl)c(F)c3)C(C)C(N)=O)nc2N)cc1 (racemic) [Example 59, rac-2-(N-[4-amino-5-(4-methoxybenzoyl)thiazol-2-yl]-4-chloro-3-fluoro-anilino)propanamide] | 10.3
CC(C(N)=O)N(c1ccc(F)cc1)c1nc(N)c(C(=O)c2ccccc2)s1 (racemic) [Example 61, rac-2-(N-(4-amino-5-benzoyl-thiazol-2-yl)-4-fluoro-anilino)propanamide] | 93.2
